This assay relates to galanin receptors. Nature of the assay: autoradiography of [35S]GTPγS binding in tissue arrays of isolated cell membranes with ligands of galanin receptors. It is filed as biochemical, Sprague Dawley rats. To be noted: for binding of [35S]GTPγS in the presence of ligand: some tissues (e.g., pituitary), membranes on slides treated with orthophosphoric acid, vs basal; for antagonism of the action of galnon on [35S]GTPγS binding: galnon + antagonist, tissue arrays (FIG. 7). From the text:
Five male Sprague Dawley rats (250-275 g) were anesthetized and sacrificed according to the guide approved by the Ethics Committee of the Faculty of Medicine of the Basque Country University following internationally accepted guidelines (86/609/EEC). Organs and tissues which would be used in the experiment (pancreas, stomach, small intestine, spleen, heart, lung, liver, testicle, deferent duct, kidney, suprarenal glands, spinal cord and brain: frontal cortex, striatum, brain stem, pituitary, olfactory nuclei, hippocampus, hypothalamus, thalamus, colliculus and cerebellum) were subsequently extracted. These samples were stored at −70° C. until performing the experiment.
The tissue samples (1 g) were homogenized using a Teflon-glass homogenizer (10 taps at 1,500 rpm) in 30 volumes of homogenization buffer 1 mM [ethylene glycol-bis(β-aminoethyl)-N,N,N′,N′-tetraacetic acid (EGTA), 3 mM MgCl2, 1 mM dithiothreitol (DTT) and 50 mM Tris-HCl, pH 7.4] supplemented with […] sucrose. The crude homogenate was centrifuged at 3,000×g and at 4° C. for 5 minutes and the resulting supernatant was again centrifuged at 40,000×g for 10 minutes (4° C.). The pellet was washed in 20 volumes of homogenization buffer and re-centrifuged in the same conditions. Aliquots were prepared and stored at −70° C. The protein content was determined according to the Bradford method [Bradford M M., Anal Biochem 1976; 72:248-54] using bovine serum albumin (BSA) as standard.
Aliquots of 1 mg/ml of each tissue were taken and with this suspension, 1 μl microspots were made on glass supports (microscope slides) subjected to the following treatments: • a) Treated with orthophosphoric acid (PA) according to the process of Example 1; • b) Gelatinized (G); • c) Coated with gamma-aminopropyltriethoxysilane (APTS); • d) Treated with nitric acid and gelatinized (NA); • e) Treated with nitric acid and subsequently with lignin (NA+lignin); • f) Treated with nitric acid and subsequently with pectin (NA+pectin); or • g) Treated with nitric acid and subsequently with Kuzu (NA+Kuzu).
The microscope slides with the tissue sections were left drying for 15 minutes at room temperature. Subsequently the tissue sections were preincubated in assay buffer at pH 7.4 [50 mM Tris-HCl, 3 mM MgCl2, 0.2 mM EGTA, 100 mM NaCl, 3 mU/ml adenosine deaminase] for 20 minutes at room temperature to eliminate, as much as possible, the presence of endogenous neurotransmitters; after that, the sections were again preincubated in the assay buffer supplemented with guanosine diphosphate (GDP) (2 mM) and DTT (1 mM).
The microscope slides were then incubated for 2 hours at 30° C. in the previous assay buffer, to which the following substances were added depending on the different conditions of the experiment:
After this time, 2 15-minute washings were performed in 50 mM Tris-HCl buffer, pH 7.4 at 4° C. After the second washing, the sections were immersed in distilled water at 4° C. to eliminate the salts and the microscope slides were dried by means of the application of a cold airflow.
Subsequently, the microscope slides with the corresponding sections were exposed to a radiosensitive film (Kodak Biomax MR) which was developed similarly to photographic film. The labeling was quantified transforming the different gray densities into nCi/g tissue equivalent. To that end, each film was exposed together with previously calibrated commercial standards (Amersham). The quantification was performed with microscopic anatomical resolution in a computerized image analysis system, using NIH-image software.
The substances added in the different assays were the following: • (A) To study the binding of [^35S]GTPγS in the absence (basal) and in the presence of agonists, the following agonists were used: • (i) the cannabinoid agonist WIN 55212-2 [(R)-(+)-[2,3-dihydro-5-methyl-3-[(4-morpholinyl)methyl]pyrrolo[1,2,3-d,e]-1.4-benzoxazin-6-yl]-(1-naphthalenyl)methanone mono-methanesulphonate] […]

Non-standard residues stand in square brackets, D forms with d. Residues, ends and D or L forms follow the SMILES beside them. *: point of attachment. Fmoc = O=C(OCC1c2ccccc2-c2ccccc21)*; Cha = N[C@@H](CC1CCCCC1)C(=O)O; AMC = Cc1cc(=O)oc2cc(N*)ccc12

As for `Cc1cc(=O)oc2cc(NC(=O)[C@H](CCCCN)NC(=O)[C@H](CC3CCCCC3)NC(=O)OCC3c4ccccc4-c4ccccc43)ccc12` [galnon] (Fmoc-[Cha]-Lys-{AMC}), the “binding of [35S]GTPγS in the presence of ligand” value (“binding of [35S]GTPγS” for short) is “increases”.

As for gal(2-11), the “binding of [35S]GTPγS” value is listed as “increases”.

On to “galanin-(1-13)-Pro-Pro-Ala-Leu-Ala-Leu-Ala-Leu-Ala amide [M40]”, for which the “antagonism of the action of galnon on [35S]GTPγS binding” value is “antagonized” and the “binding of [35S]GTPγS” value was “increases”.

As for “galanin-(1-13)-bradykinin,-(2,9)amide [M35]”, the “antagonism of the action of galnon on [35S]GTPγS binding” value was “antagonized” and the “binding of [35S]GTPγS” value is reported as “increases”.

Consider “galanin-(1-13)-substance P-5-11 amide [M15]”, for which the “binding of [35S]GTPγS” value is given as “increases”.

(Values after US20100068782A1, “METHOD FOR THE SURFACE TREATMENT OF SOLID SUBSTRATES” (UNIVERSIDAD DEL (PIAS) PAIS VASCO, priority 2006, published 2010).)
